Results: US20250388575A1, “HETEROBIFUNCTIONAL COMPOUNDS AND METHODS OF TREATING DISEASE” (Halda Therapeutics OpCo, Inc., priority 2022, published 2025)
Read-outs that look alike come from different tables or passages of the source.

Legend:
[1] = test system: T-Rex 293 cell line SC3 cells having increased expression of androgen receptor protein; assay: Cellular growth inhibition, T-Rex 293 SC3 cells with increased androgen receptor expression (doxycycline), CellTiter-Glo; assay type: cell-based; details: T-Rex 293 SC3 cells with increased androgen receptor expression (exposed to 10 ng/mL doxycycline), 72 hours, CellTiter-Glo; read-out: GI50
How it was run: (§1)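 SC3, a T-Rex 293 clone with doxycycline-inducible wild-type androgen receptor, was seeded in phenol red-free DMEM with 10% charcoal-dextran FBS, with or without 10 ng/mL doxycycline. Compound added at 24 h (0.5% DMSO) for 72 h at 37° C. CellTiter-Glo 2.0 luminescence; GI50 from four-parameter fit.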

[2] = test system: T-Rex 293 cell line SC3 cells lacking increased expression of androgen receptor protein; assay: Cellular growth inhibition, T-Rex 293 SC3 cells lacking increased androgen receptor expression (no doxycycline), CellTiter-Glo; assay type: cell-based; details: T-Rex 293 SC3 cells lacking increased androgen receptor expression (not exposed to doxycycline), 72 hours, CellTiter-Glo; read-out: GI50
How it was run: as §1

[3] = test system: T47D cells; assay: Cellular growth inhibition assay for T47D cells, CellTiter-Glo; assay type: cell-based, human; details: 72 hours treatment, CellTiter-Glo 2.0
How it was run: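 Cells are plated at 3000/well and allowed 24 h before treatment. Test compound in medium containing 0.5% DMSO is then added, with DMSO-only wells as negative control, and plates are incubated 72 h at 37 °C. ATP luminescence (CellTiter-Glo 2.0) is then fitted to four parameters to derive GI50.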

[4] = test system: VCaP cells; assay: Cellular growth inhibition assay for VCaP cells, CellTiter-Glo; assay type: cell-based, human; details: VCaP cells, 72 hours, CellTiter-Glo, read-out: GI50
How it was run: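 GI50 values come from four-parameter curve fits of luminescence data normalized to a zero baseline. Compound, in medium with 0.5% DMSO, was added one day after plating and left for 72 h before CellTiter-Glo 2.0 addition.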

SMILES | GI50 [1] | GI50 [2] | GI50 ([3]; Homo sapiens) | GI50 ([4]; Homo sapiens) | GI50 [3] | GI50 [4]
CN(C1CCN(c2ccc(C(=O)N[C@H]3CC[C@H](Oc4ccc(C#N)c(Cl)c4)CC3)nn2)CC1)C1CN(c2ccc(Oc3ccc(C(C)(C)O)cc3-c3cn(C)c(=O)c4[nH]ccc34)cc2)C1 [I-140] | < 500 nM | < 500 nM | < 500 nM | < 500 nM | – | –
CN(C1CCN(c2ccc(C(=O)N[C@H]3CC[C@H](Oc4ccc(C#N)c(Cl)c4)CC3)nn2)CC1)C1CN(c2cccc(Oc3ccc(C(C)(C)O)cc3-c3cn(C)c(=O)c4[nH]ccc34)c2F)C1 [I-142] | < 500 nM | < 500 nM | < 500 nM | < 500 nM | – | –
CN(C1CN(c2ccc(Oc3ccc(C(C)(C)O)cc3-c3cn(C)c(=O)c4[nH]ccc34)cc2)C1)C1CN(c2ccc(C(=O)N[C@H]3CC[C@H](Oc4ccc(C#N)c(Cl)c4)CC3)nn2)C1 [I-143] | < 500 nM | > 3000 nM | – | – | < 500 nM | < 500 nM
Cn1cc(-c2cc(C(C)(C)O)ccc2Oc2ccc(N3CC4(CCN(c5ccc(C(=O)N[C@H]6CC[C@H](Oc7ccc(C#N)c(Cl)c7)CC6)nn5)CC4)C3)cc2)c2cc[nH]c2c1=O [I-144] | < 500 nM | 500 to 1500 nM | – | – | < 500 nM | < 500 nM
Cn1cc(-c2cc(C(C)(C)O)ccc2Oc2ccc(N3CC(OC4CCN(c5ccc(C(=O)N[C@H]6CC[C@H](Oc7ccc(C#N)c(Cl)c7)CC6)nn5)CC4)C3)cc2)c2cc[nH]c2c1=O [I-146] | < 500 nM | < 500 nM | < 500 nM | < 500 nM | – | –
Cn1cc(-c2cc(C(C)(C)O)ccc2Oc2ccc(N3CC(CC4CCN(c5ccc(C(=O)N[C@H]6CC[C@H](Oc7ccc(C#N)c(Cl)c7)CC6)nn5)CC4)C3)cc2)c2cc[nH]c2c1=O [I-147] | < 500 nM | > 3000 nM | < 500 nM | < 500 nM | – | –
Cn1cc(-c2cc(C(C)(C)O)ccc2Oc2ccc(N3CC(CC4CN(c5ccc(C(=O)N[C@H]6CC[C@H](Oc7ccc(C#N)c(Cl)c7)CC6)nn5)C4)C3)cc2)c2cc[nH]c2c1=O [I-149] | < 500 nM | < 500 nM | < 500 nM | < 500 nM | – | –
Cn1cc(-c2cc(C(C)(C)O)ccc2Oc2ccc(N3CC(OC4CN(c5ccc(C(=O)N[C@H]6CC[C@H](Oc7ccc(C#N)c(Cl)c7)CC6)nn5)C4)C3)cc2)c2cc[nH]c2c1=O [I-150] | < 500 nM | < 500 nM | < 500 nM | < 500 nM | – | –
CCS(=O)(=O)Cc1ccc(Oc2cccc(OCCOC3CCN(c4ncc(C(=O)N[C@H]5CC[C@H](Oc6ccc(C#N)c(Cl)c6)CC5)cn4)CC3)c2)c(-c2cn(C)c(=O)c3[nH]ccc23)c1 [I-152] | < 500 nM | < 500 nM | < 500 nM | < 500 nM | – | –
CCS(=O)(=O)Cc1ccc(Oc2ccc(CCCCC3CCN(c4ccc(C(=O)N[C@H]5CC[C@H](Oc6ccc(C#N)c(Cl)c6)CC5)nn4)CC3)cc2)c(-c2cn(C)c(=O)c3[nH]ccc23)c1 [I-157] | < 500 nM | < 500 nM | – | – | < 500 nM | < 500 nM
CCS(=O)(=O)c1ccc(Oc2ccc(CCC3CCN(c4ccc(C(=O)N[C@H]5CC[C@H](Oc6ccc(C#N)c(Cl)c6)CC5)nn4)CC3)nn2)c(-c2cn(C)c(=O)c3[nH]ccc23)c1 [I-221] | < 500 nM | < 500 nM | – | – | < 500 nM | < 500 nM
CCS(=O)(=O)c1ccc(OC2CC(OC3CC4(CCN(c5ccc(C(=O)N[C@H]6CC[C@H](Oc7ccc(C#N)c(Cl)c7)CC6)nn5)CC4)C3)C2)c(-c2cn(C)c(=O)c3[nH]ccc23)c1 (stereo partly shown) [I-229] | < 500 nM | < 500 nM | – | – | < 500 nM | < 500 nM
Cn1cc(-c2cc(S(C)(=O)=O)ccc2Oc2cccc(CCCC3CCN(c4ncc(C(=O)N[C@H]5CC[C@H](Oc6ccc(C#N)c(Cl)c6)CC5)cn4)CC3)c2)c2cc[nH]c2c1=O [I-233] | < 500 nM | < 500 nM | – | – | < 500 nM | < 500 nM
Cn1cc(-c2cc(N3CCCS3(=O)=O)ccc2Oc2ccc(CCC3CCN(c4ccc(C(=O)NC5CCC(Oc6ccc(C#N)c(Cl)c6)CC5)nn4)CC3)cc2)c2cc[nH]c2c1=O (stereo not shown) [I-239, N-[4-(3-chloro-4-cyano-phenoxy)cyclohexyl]-6-[4-[2-[4-[4-(1,1-dioxo-1,2-thiazolidin-2-yl)-2-(6-methyl-7-oxo-1H-pyrrolo[2,3-c]pyridin-4-yl)phenoxy]phenyl]ethyl]-1-piperidyl]pyridazine-3-carboxamide] | < 500 nM | < 500 nM | < 500 nM | < 500 nM | – | –
CCS(=O)(=O)Cc1ccc(OC2CC(OCC3CCN(c4ccc(C(=O)NC5CCC(Oc6ccc(C#N)c(Cl)c6)CC5)nn4)CC3)C2)c(-c2cn(C)c(=O)c3[nH]ccc23)c1 (stereo not shown) [I-240, N-((1r,4r)-4-(3-chloro-4-cyanophenoxy)cyclohexyl)-6-(4-(((1r,3r)-3-(4-((ethylsulfonyl)methyl)-2-(6-methyl-7-oxo-6,7-dihydro-1H-pyrrolo[2,3-c]pyridin-4-yl)phenoxy)cyclobutoxy)methyl)piperidin-1-yl)pyridazine-3-carboxamide] | < 500 nM | < 500 nM | – | – | < 500 nM | < 500 nM
Cn1cc(-c2cc(S(C)(=O)=O)ccc2OC(CCCCN2CCN(c3ccc(C(=O)NC4CCC(Oc5ccc(C#N)c(Cl)c5)CC4)nn3)CC2)C2CC2)c2cc[nH]c2c1=O (stereo not shown) [I-244, N-[4-(3-chloro-4-cyano-phenoxy)cyclohexyl]-6-[4-[5-cyclopropyl-5-[2-(6-methyl-7-oxo-1H-pyrrolo[2,3-c]pyridin-4-yl)-4-methylsulfonyl-phenoxy]pentyl]piperazin-1-yl]pyridazine-3-carboxamide] | < 500 nM | < 500 nM | < 500 nM | < 500 nM | – | –
Cn1cc(-c2cc(C3CCCS3(=O)=O)ccc2OC2CC(OCC3CCN(c4ccc(C(=O)NC5CCC(Oc6ccc(C#N)c(Cl)c6)CC5)nn4)CC3)C2)c2cc[nH]c2c1=O (stereo not shown) [I-245, N-[4-(3-chloro-4-cyano-phenoxy)cyclohexyl]-6-[4-[[3-[4-(1,1-dioxothiolan-2-yl)-2-(6-methyl-7-oxo-1H-pyrrolo[2,3-c]pyridin-4-yl)phenoxy]cyclobutoxy]methyl]-1-piperidyl]pyridazine-3-carboxamide] | < 500 nM | < 500 nM | < 500 nM | < 500 nM | – | –
Cn1cc(-c2cc(N3CCCCS3(=O)=O)ccc2Oc2ccc(CCC3CCN(c4ccc(C(=O)NC5CCC(Oc6ccc(C#N)c(Cl)c6)CC5)nn4)CC3)cc2)c2cc[nH]c2c1=O (stereo not shown) [I-246, N-[4-(3-chloro-4-cyano-phenoxy)cyclohexyl]-6-[4-[2-[4-[4-(1,1-dioxothiazinan-2-yl)-2-(6-methyl-7-oxo-1H-pyrrolo[2,3-c]pyridin-4-yl)phenoxy]phenyl]ethyl]-1-piperidyl]pyridazine-3-carboxamide] | < 500 nM | < 500 nM | – | – | < 500 nM | < 500 nM
Cn1cc(-c2cc(C(C)(C)O)ccc2CN2CC(CC3CCN(c4ccc(C(=O)NC5CCC(Oc6ccc(C#N)c(Cl)c6)CC5)nn4)CC3)C2)c2cc[nH]c2c1=O (stereo not shown) [I-248, N-[4-(3-chloro-4-cyano-phenoxy)cyclohexyl]-6-[4-[[1-[[4-(1-hydroxy-1-methyl-ethyl)-2-(6-methyl-7-oxo-1H-pyrrolo[2,3-c]pyridin-4-yl)phenyl]methyl]azetidin-3-yl]methyl]-1-piperidyl]pyridazine-3-carboxamide] | 500 to 1500 nM | 1500 to 3000 nM | 500 to 1500 nM | > 3000 nM | – | –
Cn1cc(-c2cc(C3CCS(=O)(=O)CC3)ccc2Oc2ccc(CCC3CCN(c4ccc(C(=O)NC5CCC(Oc6ccc(C#N)c(Cl)c6)CC5)nn4)CC3)cc2)c2cc[nH]c2c1=O (stereo not shown) [I-250, N-[4-(3-chloro-4-cyano-phenoxy)cyclohexyl]-6-[4-[2-[4-[4-(1,1-dioxothian-4-yl)-2-(6-methyl-7-oxo-1H-pyrrolo[2,3-c]pyridin-4-yl)phenoxy]phenyl]ethyl]-1-piperidyl]pyridazine-3-carboxamide] | < 500 nM | < 500 nM | 500 to 1500 nM | 500 to 1500 nM | – | –
CCS(=O)(=O)c1ccc(C(F)(F)c2ccc(CCC3CCN(c4ccc(C(=O)NC5CCC(Oc6ccc(C#N)c(Cl)c6)CC5)nn4)CC3)cc2)c(-c2cn(C)c(=O)c3[nH]ccc23)c1 (stereo not shown) [I-251, N-((1r,4r)-4-(3-chloro-4-cyanophenoxy)cyclohexyl)-6-(4-(4-((4-(ethylsulfonyl)-2-(6-methyl-7-oxo-6,7-dihydro-1H-pyrrolo[2,3-c]pyridin-4-yl)phenyl)difluoromethyl)phenethyl)piperidin-1-yl)pyridazine-3-carboxamide] | < 500 nM | > 3000 nM | – | – | < 500 nM | > 3000 nM
Cn1cc(-c2cc(C3CCCS3(=O)=O)ccc2Oc2ccc(CCC3CCN(c4ccc(C(=O)NC5CCC(Oc6ccc(C#N)c(Cl)c6)CC5)nn4)CC3)cc2)c2cc[nH]c2c1=O (stereo not shown) [I-252, N-[4-(3-chloro-4-cyano-phenoxy)cyclohexyl]-6-[4-[2-[4-[4-(1,1-dioxothiolan-2-yl)-2-(6-methyl-7-oxo-1Hpyrrolo[2,3-c]pyridin-4-yl)phenoxy]phenyl]ethyl]-1-piperidyl]pyridazine-3-carboxamide] | < 500 nM | > 3000 nM | 500 to 1500 nM | < 500 nM | – | –
